Counter-ions that a name gives are not always drawn.
Test system: phosphodiesterase isolated from cattle heart
Assay: Phosphodiesterase inhibition, radioisotope method with 3H-c-AMP, enzyme isolated from cattle heart
Type: biochemical
Details: control without inhibitor = 100%, 20 minutes incubation
Description: The model experiments were performed by means of phosphodiesterase isolated from animal tissues (rat brain, cattle brain, cattle heart). The enzyme was isolated by the technique of J. Schroder and H. V. Richenberg [Biochem. Biophys. […] The measurement was first carried out without the inhibiting substance and then in the presence of one of the compounds of the general formula (I) as an inhibiting agent, after an incubation period of 20 minutes [N.S. Arch. […] A solution of papaverine used as reference material was added to the enzyme preparate in an analogous manner.
The activity of the solutions containing the compounds of formula (I) and papaverine was expressed in percents of the control (enzyme solution without any inhibitor substance, the activity thereof was taken 100%).

[1] = 1 × 10^-5 mole/lit. test compound, 10 µM
[2] = 5 × 10^-6 mole/lit. test compound, 5 µM
[3] = 5 × 10^-5 mole/lit. test compound, 50 µM

SMILES	effect of the test compound on enzyme activity in % of the control [1] [%]	effect of the test compound on enzyme activity in % of the control [2] [%]	effect of the test compound on enzyme activity in % of the control [3] [%]
CC[C@@]12C=C(COC(=O)c3cc(OC)c(OC)c(OC)c3)n3c4c(c5cc(Br)ccc53)CCN(CCC1)[C@H]42 [10-Bromo-apovincaminol-3',4',5'-trimethoxy-benzoate]	61.8	67.8	–
COc1ccc(Cc2nccc3cc(OC)c(OC)cc23)cc1OC [Papaverine HCl, reference compound]	82.7	91.3	43.7
CC[C@@]12C=C(COC(=O)c3cc(OC)c(OC)c(OC)c3)n3c4c(c5ccc(Br)cc53)CCN(CCC1)[C@H]42 [(-)-11-Bromo-apovincaminol-3',4',5'-trimethoxy-benzoate hydrochloride]	21.8	31.9	21.8
CC[C@@]12C=C(COC(=O)c3cc(OC)c(OC)c(OC)c3)n3c4c(c5cc(OC)ccc53)CCN(CCC1)[C@H]42 [10-Methoxy-apovincaminol-3',4',5'-trimethoxybenzoate]	40.3	59.1	21.3

— US4432982A, “Polycyclic compounds substituted on the A-ring, pharmaceutical compositions containing them, and methods of treating psoriasis with them” (Richter Gedeon Vegyeszeti Gyar Rt., priority 1981, dated 1984)
